Assay [1] deals with T1, Full length human CDC7 protein co-expressed with DBF4 (Homo sapiens, UniProt O00311).
T1 construct: Full length human CDC7 protein co-expressed with DBF4; purchased SignalChem (China)
The assay is described as follows: CDC7 kinase biochemical assay (ADP-Glo, PDKtide substrate). Conditions: 0.1 nM CDC7/DBF4, 1 uM ATP, 10 uM PDKtide, 4 h; read-out: CDC7 ADP-Glo PDKtide IC50. An outline of the steps: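 ADP-Glo luminescence measured ADP made over a 4 h reaction of 0.1 nM CDC7/DBF4 (full-length human) with 10 uM PDKtide and 1 uM ATP. Buffer was 40 mM Tris pH 7.5 with 20 mM MgCl2, 0.1 mg/ml BSA, 50 uM DTT. Inhibition normalized to DMSO and positive-control inhibitor wells.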

The subject of assay [2] is phosphorylation of MCM2 S53 (CDC7 substrate) in colo205 cells. The assay is described as follows: Phosphorylated MCM2 MSD electrochemiluminescence assay. In kind it is cell-based. The note with it: Homo sapiens, read-out: pMCM2-S53 MSD Colo205 IC50. How it is done: Phosphorylated MCM2 MSD Electrochemiluminescence Assay
The effect of CDC7 inhibitors on cellular phosphorylation of the CDC7 substrate MCM2 was determined using the following protocol:
A total of 40,000 colo205 cells in 100 uL culture medium (1640 medium+10% Fetal bovine serum+1% Penicillin-Streptomycin) were plated in 96-well cell culture plates and allowed to attach for 6 hours. 3-fold serial dilutions of test compounds were prepared in completed PBS at 25× final concentration and 4 uL of each were added to the cells and incubated for 20 hours at 37° C., 5% CO2. Each concentration was tested in duplicate. After the 20 h incubation, cells were washed with 150 uL PBS and lysed with 40 uL MSD lysis buffer (obtained from Meso Scale Diagnostics) supplied with 1× complete ULTRA cocktail inhibitor (obtained from Roche). To detect phosphorylation of MCM2 S53, 30 μL of capture antibody solution (obtained from Abnova, catalog number H00004171-M01, 1:500) was added to each well of MULTI-ARRAY 96-well High Bind Plate, and incubated overnight. The antibody solution was removed, wells blocked with BSA solution and plates washed, followed by addition of 30 ul of cell lysate per well. After 2 h incubation, plates were washed. 30 μL of 1× detection antibody solution (obtained from Abcam, catalog number ab109133, 1:1000) was then added to each well and incubate for 1 hour. Plates were washed and 30 μL of 1× secondary antibody solution (obtained from MSD, catalog number R32AB-1, 1:5000) was added to each well and incubate for 1 hour. Plates were washed and 150 μL of 1× Read Buffer T was added to each well of the MSD plate. The electrochemiluminescence signal was measured on a MESO SECTOR S600 plate reader. The percentage of remaining phosphorylated MCM2 signal was calculated following the equation below.
HC (high control): Cells treated with DMSO Cpds: Cells treated with test compounds LC (low control): Cells treated with positive control CDC7 inhibitor

Where [3] appears, read: COLO 205, colo205 cells, 20 h incubation.

For 26 compounds, IC50 results are on record in US20230101747A1 (Schrödinger, Inc., priority 2019, published 2023).

Like-named read-outs stand apart in the source and are kept apart here. Bounds are passed on as bounds.

T1 sequence (O00311 whole entry): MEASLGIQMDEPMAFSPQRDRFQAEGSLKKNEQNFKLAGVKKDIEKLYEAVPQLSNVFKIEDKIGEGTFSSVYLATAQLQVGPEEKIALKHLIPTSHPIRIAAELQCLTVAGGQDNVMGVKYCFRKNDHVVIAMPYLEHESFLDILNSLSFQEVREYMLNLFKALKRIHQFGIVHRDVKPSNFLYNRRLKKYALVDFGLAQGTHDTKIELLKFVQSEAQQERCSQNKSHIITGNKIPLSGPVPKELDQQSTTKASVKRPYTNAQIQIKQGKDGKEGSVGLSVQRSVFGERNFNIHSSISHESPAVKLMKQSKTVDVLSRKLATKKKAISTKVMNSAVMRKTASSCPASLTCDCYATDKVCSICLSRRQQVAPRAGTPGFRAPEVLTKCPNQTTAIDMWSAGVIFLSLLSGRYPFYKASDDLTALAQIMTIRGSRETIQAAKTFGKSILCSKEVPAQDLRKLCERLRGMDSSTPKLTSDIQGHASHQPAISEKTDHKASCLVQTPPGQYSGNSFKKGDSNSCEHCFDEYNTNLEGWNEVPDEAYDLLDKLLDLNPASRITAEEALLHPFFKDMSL
T1 sequence (Q9UBU7 whole entry partner): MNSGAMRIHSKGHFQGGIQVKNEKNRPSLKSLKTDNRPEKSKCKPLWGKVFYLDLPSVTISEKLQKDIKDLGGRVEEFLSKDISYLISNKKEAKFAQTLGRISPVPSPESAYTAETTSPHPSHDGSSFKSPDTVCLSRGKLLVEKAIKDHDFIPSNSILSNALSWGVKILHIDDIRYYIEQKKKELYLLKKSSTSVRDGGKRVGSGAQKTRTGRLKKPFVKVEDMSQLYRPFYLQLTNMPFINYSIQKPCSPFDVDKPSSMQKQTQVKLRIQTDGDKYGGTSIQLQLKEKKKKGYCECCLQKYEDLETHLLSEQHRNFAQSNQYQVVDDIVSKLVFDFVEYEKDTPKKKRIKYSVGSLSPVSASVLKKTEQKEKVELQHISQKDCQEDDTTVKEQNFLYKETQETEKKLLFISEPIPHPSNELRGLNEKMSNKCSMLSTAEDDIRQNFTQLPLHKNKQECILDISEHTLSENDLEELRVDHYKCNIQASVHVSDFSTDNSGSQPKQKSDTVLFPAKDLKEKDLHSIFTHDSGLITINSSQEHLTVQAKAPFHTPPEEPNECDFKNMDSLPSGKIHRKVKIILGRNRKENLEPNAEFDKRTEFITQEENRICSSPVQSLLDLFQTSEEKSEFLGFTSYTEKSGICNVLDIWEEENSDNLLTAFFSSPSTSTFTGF

What is called IC50 is the midpoint of a concentration-inhibition curve. `O=C1N[C@@H](CO)CN2CCCc3c(-c4cn[nH]c4)sc1c32` [Compound 32, (R)-7-(hydroxymethyl)-2-(1H-pyrazol-4-yl)-4,5,7,8-tetrahydro-3H-1-thia-5a,8-diazabenzo[cd]azulen-9(6H)-one]: the results for the 50% inhibitory concentration (IC50) in assay [1] and in assay [2] (setting [3]) were less than 0.001 µM and 0.812 µM, respectively.
For `O=C1N[C@@H]([C@@H]2CC(F)(F)CN2)CN2CC(F)(F)Cc3c(-c4cn[nH]c4)sc1c32` [Compound 135, (10R)-10-[(2S)-4,4-difluoropyrrolidin-2-yl]-6,6-difluoro-3-(1H-pyrazol-4-yl)-2-thia-8,11-diazatricyclo[6.4.1.04,13]trideca-1(13),3-dien-12-one] the same measures were less than 0.001 µM and 0.027 µM.
Taken in the same sequence, the figures for `O=C1NCCN2c3c1sc(-c1cn[nH]c1)c3OC[C@@H]2CO` [Compound 49, (S)-5-(hydroxymethyl)-2-(1H-pyrazol-4-yl)-4,5,7,8-tetrahydro-3-oxa-1-thia-5a,8-diazabenzo[cd]azulen-9(6H)-one] were less than 0.001 µM and 0.509 µM.
Taken in the same sequence, the figures for `COC[C@H]1CN2C[C@H](F)Cc3c(-c4cn[nH]c4)sc(c32)C(=O)N1` (single isomer, unassigned) [Compound 126] were less than 0.001 µM and 0.902 µM.
`C[C@H]1CN2CCCc3c(-c4cn[nH]c4)sc(c32)C(=O)N1` [Compound 30, (S)-7-methyl-2-(1H-pyrazol-4-yl)-4,5,7,8-tetrahydro-3H-1-thia-5a,8-diazabenzo[cd]azulen-9(6H)-one]: the 50% inhibitory concentration (IC50) in assay [1] was less than 0.001 µM; in assay [2] (setting [3]), 0.041 µM.
Taken in the same sequence, the figures for `Cc1cnn(C[C@H]2CN3CCOc4c(-c5cn[nH]c5)sc(c43)C(=O)N2)c1` [Compound 41, (R)-7-((4-methyl-1H-pyrazol-1-yl)methyl)-2-(1H-pyrazol-4-yl)-4,5,7,8-tetrahydro-3-oxa-1-thia-5a,8-diazabenzo[cd]azulen-9(6H)-one] were less than 0.001 µM and 0.087 µM.
Take `O=C1NC[C@@H](C2CCOCC2)N2CCOc3c(-c4cn[nH]c4)sc1c32` (single isomer, unassigned) [Compound 27]: the IC50 in assay [1] was less than 0.001 µM; in assay [2] (setting [3]), 0.256 µM.
For `COC[C@H]1CN2CC(F)(F)Cc3c(-c4cn[nH]c4)sc(c32)C(=O)N1` [Compound 103, (10R)-6,6-difluoro-10-(methoxymethyl)-3-(1H-pyrazol-4-yl)-2-thia-8,11-diazatricyclo [6.4.1.0^4,13]trideca-1(13),3-dien-12-one] the same measures were less than 0.001 µM and 0.015 µM.
For `C[C@H]1CN2CCOc3c(-c4cn[nH]c4)sc(c32)C(=O)N1` [Compound 16, (S)-7-methyl-2-(1H-pyrazol-4-yl)-4,5,7,8-tetrahydro-3-oxa-1-thia-5a,8-diazabenzo[cd]azulen-9(6H)-one] the same measures were less than 0.001 µM and 0.016 µM.
Taken in the same sequence, the figures for `O=C1NC[C@H](CO)N2CCOc3c(-c4cn[nH]c4)sc1c32` [Compound 33, (R)-6-(hydroxymethyl)-2-(1H-pyrazol-4-yl)-4,5,7,8-tetrahydro-3-oxa-1-thia-5a,8-diazabenzo[cd]azulen-9(6H)-one] were less than 0.001 µM and 0.08 µM.
Take `O=C1NC[C@@H](COCc2ccccc2)N2CCOc3c(-c4cn[nH]c4)sc1c32` [Compound 38, (S)-6-((benzyloxy)methyl)-2-(1H-pyrazol-4-yl)-4,5,7,8-tetrahydro-3-oxa-1-thia-5a,8-diazabenzo[cd]azulen-9(6H)-one]: the values for the IC50 in assay [1] and in assay [2] (setting [3]) were 0.001 to 0.01 µM and 1.81 µM, respectively.
Taken in the same sequence, the figures for `O=C1N[C@H](C2CCC2)CN2CCOc3c(-c4cn[nH]c4)sc1c32` [Compound 19, (R)-7-cyclobutyl-2-(1H-pyrazol-4-yl)-4,5,7,8-tetrahydro-3-oxa-1-thia-5a,8-diazabenzo[cd]azulen-9(6H)-one] were less than 0.001 µM and 0.057 µM.
Turning to `COC[C@H]1CN2C[C@@H](F)Cc3c(-c4cn[nH]c4)sc(c32)C(=O)N1` (single isomer, unassigned) [Compound 125], the figures for the half-inhibitory concentration (IC50) in assay [1] and in assay [2] (setting [3]) were less than 0.001 µM and 0.012 µM, respectively.
Taken in the same sequence, the figures for `COC[C@@H]1CN2CCOc3c(-c4cn[nH]c4)sc(c32)C(=O)N1` [Compound 54, (S)-7-(methoxymethyl)-2-(1H-pyrazol-4-yl)-4,5,7,8-tetrahydro-3-oxa-1-thia-5a,8-diazabenzo[cd]azulen-9(6H)-one] were less than 0.001 µM and 0.11 µM.
On to `O=C1N[C@@H]([C@H]2CCCO2)CN2CC(F)(F)Cc3c(-c4cn[nH]c4)sc1c32` (single isomer, unassigned) [Compound 118], for which the IC50 is less than 0.001 µM in assay [1] and 0.005 µM in assay [2] (setting [3]).
For `COC1(C[C@@H]2CNC(=O)c3sc(-c4cn[nH]c4)c4c3N2CCC4)CC1` [Compound 91, (9R)-9-[(1-methoxycyclopropyl)methyl]-3-(1H-pyrazol-4-yl)-2-thia-8,11-diazatricyclo [6.4.1.0^4,13]trideca-1(13),3-dien-12-one] the same measures were less than 0.001 µM and 0.66 µM.
For the compound `O=C1NC2(CCC2)CN2CCOc3c(-c4cn[nH]c4)sc1c32` [Compound 51, 2-(1H-pyrazol-4-yl)-4,5-dihydro-6H-3-oxa-1-thia-5a,8-diazaspiro[benzo[cd]azulene-7,1′-cyclobutan]-2,2a1(9a)-dien-9(8H)-one], the IC50 in assay [1] is less than 0.001 µM; in assay [2] (COLO 205, 20 h), 0.018 µM.
On to `O=C1N[C@@H](C23CCC(CC2)O3)CN2CC(F)(F)Cc3c(-c4cn[nH]c4)sc1c32` (single isomer, unassigned) [Compound 121], for which the IC50 in assay [1] was less than 0.001 µM; in assay [2] (setting [3]), 0.012 µM.
For `O=C1N[C@@H](Cn2cccn2)CN2CC(F)(F)Cc3c(-c4cn[nH]c4)sc1c32` [Compound 102, (R)-7-((1H-pyrazol-1-yl)methyl)-4,4-difluoro-2-(1H-pyrazol-4-yl)-4,5,7,8-tetrahydro-3H-1-thia-5a,8-diazabenzo[cd]azulen-9(6H)-one] the same measures were less than 0.001 µM and 0.066 µM.
In the case of `CC(C)(O)C[C@@H]1CNC(=O)c2sc(-c3cn[nH]c3)c3c2N1CCO3` [Compound 104, (R)-6-(2-hydroxy-2-methylpropyl)-2-(1H-pyrazol-4-yl)-4,5,7,8-tetrahydro-3-oxa-1-thia-5a,8-diazabenzo[cd]azulen-9(6H)-one], the values for the 50% inhibitory concentration (IC50) in assay [1] and in assay [2] (setting [3]) were less than 0.001 µM and 0.15 µM, respectively.
Taken in the same sequence, the figures for `C[C@@H]1CN2CC(F)(F)Oc3c(-c4cn[nH]c4)sc(c32)C(=O)N1` [Compound 93, (10R)-6,6-difluoro-10-methyl-3-(1H-pyrazol-4-yl)-5-oxa-2-thia-8,11-diazatricyclo [6.4.1.0^443] trideca-1(13), 3-dien-12-one] were less than 0.001 µM and 0.028 µM.
Taken in the same sequence, the figures for `COC[C@@H]1CNC(=O)c2sc(-c3cn[nH]c3)c3c2N1CCO3` [Compound 55, (S)-6-(methoxymethyl)-2-(1H-pyrazol-4-yl)-4,5,7,8-tetrahydro-3-oxa-1-thia-5a,8-diazabenzo[cd]azulen-9(6H)-one] were less than 0.001 µM and 0.021 µM.
For `CN1CC(F)(F)C[C@H]1[C@H]1CN2CC(F)(F)Cc3c(-c4cn[nH]c4)sc(c32)C(=O)N1` [Compound 136, (R)-7-((S)-4,4-difluoro-1-methylpyrrolidin-2-yl)-4,4-difluoro-2-(1H-pyrazol-4-yl)-4,5,7,8-tetrahydro-3H-1-thia-5a,8-diazabenzo[cd]azulen-9(6H)-one], the values for the IC50 in assay [1] and in assay [2] (setting [3]) were less than 0.001 µM and 0.016 µM, respectively.
Taken in the same sequence, the figures for `O=C1NC[C@H](CO)N2CCOc3c(-c4ccncc4)sc1c32` [Compound 50, (R)-6-(hydroxymethyl)-2-(pyridin-4-yl)-4,5,7,8-tetrahydro-3-oxa-1-thia-5a,8-diazabenzo[cd]azulen-9(6H)-one] were less than 0.001 µM and 0.268 µM.
With `Cc1cnn(C[C@H]2CNC(=O)c3sc(-c4cn[nH]c4)c4c3N2CCO4)c1` [Compound 42, (R)-6-((4-methyl-1H-pyrazol-1-yl)methyl)-2-(1H-pyrazol-4-yl)-4,5,7,8-tetrahydro-3-oxa-1-thia-5a,8-diazabenzo[cd]azulen-9(6H)-one], in assay [1], the IC50 was more than 0.01 µM.
On the same count and under the same terms, with `COC[C@H]1[C@@H](C2CCC2)NC(=O)c2sc(-c3cn[nH]c3)c3c2N1CCO3` (single isomer, unassigned) [Compound 98] the figure was 0.001 to 0.01 µM.
